Measurements taken from ChEMBL document CHEMBL2074304, “Primary active transport of peptidic endothelin antagonists by rat hepatic canalicular membrane” (J Pharmacol Exp Ther, 1999).
Square brackets hold non-standard residues; d marks the D form. Peptide text beside a SMILES is read from it. * marks the point of attachment. dGly(2-thienyl) = N[C@@H](C(=O)O)c1cccs1; Moc = COC(=O)*

Experiments:
Assay type in all cases: functional, cell membranes, Sprague-Dawley, Bile canalicular membrane vesicle
[1] = molecular target: T1, ATP-binding cassette sub-family C member 2 (Rattus norvegicus, UniProt Q63120); test: TP_TRANSPORTER: inhibition of BQ-485 uptake in bile canalicular membrane vesicles from SD rat
[2] = molecular target: T1, ATP-binding cassette sub-family C member 2; test: TP_TRANSPORTER: inhibition of BQ-123 uptake in bile canalicular membrane vesicles from SD rat
[3] = substrate: CC(C)C[C@H](NC(=O)N1CCCCCC1)C(=O)N[C@H](Cc1c[nH]c2ccccc12)C(=O)N[C@H](Cc1c[nH]c2ccccc12)C(=O)O; test: (§1) TP_TRANSPORTER: uptake in bile canalicular membrane vesicles from SD rat
[4] = substrate: [H][C@@]12CCCN1C(=O)[C@@H](CC(=O)O)NC(=O)[C@@H](Cc1c[nH]c3ccccc13)NC(=O)[C@H](CC(C)C)NC(=O)[C@@H](c1cccs1)NC2=O; test: as §1
[5] = substrate: CC(C)C[C@@H]1NC(=O)[C@@H](C(C)C)NC(=O)[C@@H]2CCCN2C(=O)[C@@H](CC(=O)O)NC(=O)[C@@H](Cc2c[nH]c3ccccc23)NC1=O; test: as §1

Row | Molecule | Ki [2] [µM] | other results
1 | CC(C)C[C@@H]1NC(=O)[C@@H](C(C)C)NC(=O)[C@@H]2CCCN2C(=O)[C@@H](CC(=O)O)NC(=O)[C@@H](Cc2c[nH]c3ccccc23)NC1=O [BQ-123] (cyclo(L[dW][dD]P[dV])) |  | Ki [1]: 84.1 µM
2 | CC(C)C[C@@H]1NC(=O)[C@@H](C(C)C)NC(=O)[C@@H]2C[C@@H](OC(=O)[C@H](CCCCN)N(C)C)CN2C(=O)[C@@H](CC(=O)O)NC(=O)[C@@H](Cc2c[nH]c3ccccc23)NC1=O | 85.4 | 
3 | CC(C)C[C@@H]1NC(=O)[C@@H](c2cccs2)NC(=O)[C@@H]2CCCN2C(=O)[C@@H](CC(=O)O)NC(=O)[C@@H](Cc2c[nH]c3ccccc23)NC1=O (cyclo(L[dW][dD]P[dGly(2-thienyl)])) | 65.5 | 
4 | ATP-binding cassette sub-family C member 2 (Rattus norvegicus) (protein) MDKFCNSTFWDLSLLESPEADLPLCFEQTVLVWIPLGFLWLLAPWQLYSVYRSRTKRSSITKFYLAKQVFVVFLLILAAIDLSLALTEDTGQATVPPVRYTNPILYLCTWLLVLAVQHSRQWCVRKNSWFLSLFWILSVLCGVFQFQTLIRALLKDSKSNMAYSYLFFVSYGFQIVLLILTAFSGPSDSTQTPSVTASFLSSITFSWYDRTVLKGYKHPLTLEDVWDIDEGFKTRSVTSKFEAAMTKDLQKARQAFQRRLQKSQRKPEATLHGLNKKQSQSQDVLVLEEAKKKSEKTTKDYPKSWLIKSLFKTFHVVILKSFILKLIHDLLVFLNPQLLKLLIGFVKSSNSYVWFGYICAILMFAVTLIQSFCLQSYFQHCFVLGMCVRTTVMSSIYKKALTLSNLARKQYTIGETVNLMSVDSQKLMDATNYMQLVWSSVIQITLSIFFLWRELGPSILAGVGVMVLLIPVNGVLATKIRNIQVQNMKNKDKRLKIMNEILSGIKILKYFAWEPSFQEQVQGIRKKELKNLLRFGQLQSLLIFILQITPILVSVVTFSVYVLVDSANVLNAEKAFTSITLFNILRFPLSMLPMVTSSILQASVSVDRLERYLGGDDLDTSAIRRVSNFDKAVKFSEASFTWDPDLEATIQDVNLDIKPGQLVAVVGTVGSGKSSLVSAMLGEMENVHGHITIQGSTAYVPQQSWIQNGTIKDNILFGSEYNEKKYQQVLKACALLPDLEILPGGDMAEIGEKGINLSGGQKQRVSLARAAYQDADIYILDDPLSAVDAHVGKHIFNKVVGPNGLLAGKTRIFVTHGIHFLPQVDEIVVLGKGTILEKGSYRDLLDKKGVFARNWKTFMKHSGPEGEATVNNDSEAEDDDDGLIPTMEEIPEDAASLAMRRENSLRRTLSRSSRSSSRRGKSLKNSLKIKNVNVLKEKEKEVEGQKLIKKEFVETGKVKFSIYLKYLQAVGWWSILFIILFYGLNNVAFIGSNLWLSAWTSDSDNLNGTNNSSSHRDMRIGVFGALGLAQGICLLISTLWSIYACRNASKALHGQLLTNILRAPMRFFDTTPTGRIVNRFSGDISTVDDLLPQTLRSWMMCFFGIAGTLVMICMATPVFAIIIIPLSILYISVQVFYVATSRQLRRLDSVTKSPIYSHFSETVTGLPIIRAFEHQQRFLAWNEKQIDINQKCVFSWITSNRWLAIRLELVGNLVVFCSALLLVIYRKTLTGDVVGFVLSNALNITQTLNWLVRMTSEAETNIVAVERISEYINVENEAPWVTDKRPPADWPRHGEIQFNNYQVRYRPELDLVLKGITCNIKSGEKVGVVGRTGAGKSSLTNCLFRILESAGGQIIIDGIDVASIGLHDLRERLTIIPQDPILFSGSLRMNLDPFNKYSDEEVWRALELAHLRSFVSGLQLGLLSEVTEGGDNLSIGQRQLLCLGRAVLRKSKILVLDEATAAVDLETDSLIQTTIRKEFSQCTVITIAHRLHTIMDSDKIMVLDNGKIVEYGSPEELLSNRGSFYLMAKEAGIENVNHTEL |  | Km [3]: 6.46 µM; Km [4]: 15.1 µM; Km [5]: 97.8 µM

Continued, in another order:

Row | Ki [2] [µM] | Molecule | other results
5 | 8.32 | CC(C)C[C@H](NC(=O)N1CCCCCC1)C(=O)N[C@H](Cc1c[nH]c2ccccc12)C(=O)N[C@H](Cc1c[nH]c2ccccc12)C(=O)O | 
6 | 1.01 | CC(C)C[C@@H]1NC(=O)[C@@H](C(C)C)NC(=O)[C@@H]2C[C@H](OC(=O)[C@@H](N)CCCNC(=N)N)CN2C(=O)[C@@H](CC(=O)O)NC(=O)[C@@H](Cc2c[nH]c3ccccc23)NC1=O | 
7 | 54.1 | COC(=O)n1cc(C[C@H]2NC(=O)[C@H](CC(C)C)NC(=O)[C@@H](C(C)C)NC(=O)[C@@H]3CCCN3C(=O)[C@@H](CC(=O)O)NC2=O)c2ccccc21 (cyclo(L[dW](Moc)[dD]P[dV])) | 
8 | 40 | CC(C)C[C@H](NC(=O)N1CCCCCC1)C(=O)N[C@H](Cc1c[nH]c2ccccc12)C(=O)NC(C)CC(=O)O (stereo not given in full) | 
